In US20150307938A1, “METHOD TO IDENTIFY A NOVEL CLASS OF IMMUNOLOGIC ADJUVANTS” (Lancell, L.L.C., priority 2011, published 2015):
Marks after values point to notes of the source that are not given here.

System: full thickness skin
Experiment: Whole genome array of skin gene expression after topical DBP (time course)
Assay type: in vivo, C57BL/6J mice
Method: Mice: C57BL/6J female mice obtained from The Jackson Laboratory were used between 8 and 12 weeks of age.
Treatment: Mice were untreated or treated topically on the dorsal side of each ear with […] of dibutylphthalate (DBP). At the designated time points after treatment, the animals were euthanized and the ears washed with 70% isopropanol. Full thickness skin was obtained from the dorsal side of both ears and placed immediately in liquid nitrogen. The time between euthanasia and placement of both skin samples in liquid nitrogen was less than 1 minute. Each sample for RNA extraction contained two dorsal ear skin samples obtained from a single mouse both of whose ears received the same treatment.
RNA Extraction: While in liquid nitrogen, the skin was pulverized with a motorized mortar and pestle (CryoGrinder), transferred by inversion of the mortar directly into 1.5 ml cryogenic vials (Nalgene) and stored in liquid nitrogen until RNA extraction. Total RNA from both ears was extracted by homogenization (Pro200) in TRIzol Reagent (Invitrogen) with 7.5 μg of RNase-free glycogen added to the mixture, according to the manufacturer's directions. The RNA was purified on a solid phase RNeasy MinElute Cleanup column (Qiagen) and eluted with 17 μL of RNase-free water. The samples were stored at −20° C. until use.
Quantification of RNA: RNA yields were quantified by UV absorption using a NanoDrop NG-1000 spectrophotometer, where 1 AU 260 equals 40 μg RNA/ml. Purity was estimated by the 260 and 280 nm absorbance ratio; values between 1.7 and 2.1 were considered acceptable.
Assessment of RNA Quality: The quality of sample RNA was assessed using a RNA 6000 LABCHIP Kit on an Agilent 2100 Bioanalyzer. The Bioanalyzer determines the integrity/purity of the RNA samples and permits the screening of total and mRNA sample degradation and ribosomal RNA contamination. An RNA 6000 ladder was also loaded on a specified well and used as a reference for data analysis and a built-in quality control measure. The quality and integrity of the RNA was determined through visual inspection of each electropherogram. In general, only samples with a RIN (RNA integrity number) of 7 or greater, as determined by the Bioanalyzer, were used for gene arrays. This quality control analysis was repeated following the labeling procedure to ensure that the probes were efficiently labeled and had the correct size before hybridization to the chips. All samples that were run on genome wide arrays were obtained as independent duplicates from two individual mice.
Microarray Data Interpretation: Gene expression was compared between untreated and treated total RNA samples. “Transition” data, which represent the change in expression level for a given gene, are presented as a “weighted difference.” Changes in gene expression level were considered to be significant when the adjusted p values were less than […]. The “gene expression signature” arbitrarily includes only those genes that were transcribed with a weighted increase of 2.0 or greater, which was sustained over the subsequent time points tested.
The weighted difference is a metric that takes into account both the variability between different time-points and the variability between replicates at the same time-point. The calculations are performed for each time-point transition, i.e., 30 minutes vs. 1 hour, 1 hour vs. 2 hours, etc. There are two steps to the calculation: the calculation of a modified Euclidean difference between the two time-points, and the calculation of the Euclidean difference between the replicates within each time-point. The first measure is an unweighted difference, while the final metric given in the spreadsheet “weights” this difference by taking into account the second measure.
In a Euclidean difference calculation, each data point is considered as a vector in a multi-dimensional space, and the actual straight-line distance between the data points is calculated. […]

[1] = First 15 min after DBP application

CCCCOC(=O)c1ccccc1C(=O)OCCCC [DBP, dibutylphthalate]
DBP Unique genes, number (2 hr): 42 | DBP-Induced genes (≧2x Increased Expression), number (2 hr): 112 | TLR-Induced among DBP-induced genes, number (2 hr): 70^# | Acot5 Change in Gene Expression (Weighted Difference) (2 hr to 4 hr Transition): 2.191 | Akr1c18 Change in Gene Expression (Weighted Difference) (2 hr to 4 hr Transition): −0.08563 | Areg Change in Gene Expression (Weighted Difference) (2 hr to 4 hr Transition): 3.401 | Atp2c2 Change in Gene Expression (Weighted Difference) (2 hr to 4 hr Transition): −0.002189 | Btg2 Change in Gene Expression (Weighted Difference) (2 hr to 4 hr Transition): 1.009 | Ccr4 Change in Gene Expression (Weighted Difference) (2 hr to 4 hr Transition): 0.03996 | Cdh10 Change in Gene Expression (Weighted Difference) (2 hr to 4 hr Transition): −0.008005 | Cish Change in Gene Expression (Weighted Difference) (2 hr to 4 hr Transition): 0.7204 | Cox17 Change in Gene Expression (Weighted Difference) (2 hr to 4 hr Transition): −0.1255 | Ctgf Change in Gene Expression (Weighted Difference) (2 hr to 4 hr Transition): 2.29 | Cysltr1 Change in Gene Expression (Weighted Difference) (2 hr to 4 hr Transition): −0.8049 | Ddx21 Change in Gene Expression (Weighted Difference) (2 hr to 4 hr Transition): 2.413 | Dlx4 Change in Gene Expression (Weighted Difference) (2 hr to 4 hr Transition): 3.05 | Dusp14 Change in Gene Expression (Weighted Difference) (2 hr to 4 hr Transition): 2.291 | Egr1 Change in Gene Expression (Weighted Difference) (2 hr to 4 hr Transition): 2.348 | Egr2 Change in Gene Expression (Weighted Difference) (2 hr to 4 hr Transition): 0.5934 | Fam115c Change in Gene Expression (Weighted Difference) (2 hr to 4 hr Transition): 2.163 | Fbxo42 Change in Gene Expression (Weighted Difference) (2 hr to 4 hr Transition): 2.267 | Fosl1 Change in Gene Expression (Weighted Difference) (2 hr to 4 hr Transition): 4.432 | Frk Change in Gene Expression (Weighted Difference) (2 hr to 4 hr Transition): −0.0494 | Gart Change in Gene Expression (Weighted Difference) (2 hr to 4 hr Transition): 5.268 | Gbp8 Change in Gene Expression (Weighted Difference) (2 hr to 4 hr Transition): −0.04223 | Gem Change in Gene Expression (Weighted Difference) (2 hr to 4 hr Transition): 1.546 | Gimap7 Change in Gene Expression (Weighted Difference) (2 hr to 4 hr Transition): 0.03205 | Has1 Change in Gene Expression (Weighted Difference) (2 hr to 4 hr Transition): 2.54 | Ier3 Change in Gene Expression (Weighted Difference) (2 hr to 4 hr Transition): 4.521 | Il10 Change in Gene Expression (Weighted Difference) (2 hr to 4 hr Transition): 2.932 | Il10ra Change in Gene Expression (Weighted Difference) (2 hr to 4 hr Transition): 0.1254 | Il20 Change in Gene Expression (Weighted Difference) (2 hr to 4 hr Transition): 2.876 | Irf4 Change in Gene Expression (Weighted Difference) (2 hr to 4 hr Transition): 3.715 | Jun Change in Gene Expression (Weighted Difference) (2 hr to 4 hr Transition): 0.9971 | Junb Change in Gene Expression (Weighted Difference) (2 hr to 4 hr Transition): 0.9119 | Kcnk1 Change in Gene Expression (Weighted Difference) (2 hr to 4 hr Transition): 32.8 | LOC100046066 Change in Gene Expression (Weighted Difference) (2 hr to 4 hr Transition): −0.1464 | LOC100046410 Change in Gene Expression (Weighted Difference) (2 hr to 4 hr Transition): 2.134 | Lcn5 Change in Gene Expression (Weighted Difference) (2 hr to 4 hr Transition): 3.183 | Madcam1 Change in Gene Expression (Weighted Difference) (2 hr to 4 hr Transition): −0.01081 | Maml1 Change in Gene Expression (Weighted Difference) (2 hr to 4 hr Transition): 3.564 | Map3k11 Change in Gene Expression (Weighted Difference) (2 hr to 4 hr Transition): 2.249 | Med17 Change in Gene Expression (Weighted Difference) (2 hr to 4 hr Transition): −2.259E−05 | Mkks Change in Gene Expression (Weighted Difference) (2 hr to 4 hr Transition): −0.2406 | Mndal Change in Gene Expression (Weighted Difference) (2 hr to 4 hr Transition): 0.09548 | Mtap7d1 Change in Gene Expression (Weighted Difference) (2 hr to 4 hr Transition): 6.99 | Myc Change in Gene Expression (Weighted Difference) (2 hr to 4 hr Transition): 1.296 | Myh3 Change in Gene Expression (Weighted Difference) (2 hr to 4 hr Transition): 8.012 | Myl2 Change in Gene Expression (Weighted Difference) (2 hr to 4 hr Transition): 12.2 | N6amt2 Change in Gene Expression (Weighted Difference) (2 hr to 4 hr Transition): −0.02824 | Nedd4l Change in Gene Expression (Weighted Difference) (2 hr to 4 hr Transition): 2.067 | Nr4a1 Change in Gene Expression (Weighted Difference) (2 hr to 4 hr Transition): 4.572 | P2ry1 Change in Gene Expression (Weighted Difference) (2 hr to 4 hr Transition): −0.2494 | Palmd Change in Gene Expression (Weighted Difference) (2 hr to 4 hr Transition): 2.134 | Prf1 Change in Gene Expression (Weighted Difference) (2 hr to 4 hr Transition): −0.1682 | Prss23 Change in Gene Expression (Weighted Difference) (2 hr to 4 hr Transition): 6.983 | Pxmp4 Change in Gene Expression (Weighted Difference) (2 hr to 4 hr Transition): 3.362 | Rai12 Change in Gene Expression (Weighted Difference) (2 hr to 4 hr Transition): 6.683 | Rassf5 Change in Gene Expression (Weighted Difference) (2 hr to 4 hr Transition): 2.519 | Sik1 Change in Gene Expression (Weighted Difference) (2 hr to 4 hr Transition): 1.009 | Slc25a25 Change in Gene Expression (Weighted Difference) (2 hr to 4 hr Transition): 2.285 | Slc39a8 Change in Gene Expression (Weighted Difference) (2 hr to 4 hr Transition): 2.101 | Tiparp Change in Gene Expression (Weighted Difference) (2 hr to 4 hr Transition): 2.281 | Tmed3 Change in Gene Expression (Weighted Difference) (2 hr to 4 hr Transition): −0.1013 | Tmem51 Change in Gene Expression (Weighted Difference) (2 hr to 4 hr Transition): 6.104 | Tnfaip8l1 Change in Gene Expression (Weighted Difference) (2 hr to 4 hr Transition): 2.28 | Tnip1 Change in Gene Expression (Weighted Difference) (2 hr to 4 hr Transition): 3.267 | Tnni1 Change in Gene Expression (Weighted Difference) (2 hr to 4 hr Transition): 3.47 | Tnnt1 Change in Gene Expression (Weighted Difference) (2 hr to 4 hr Transition): 2.946 | Trib1 Change in Gene Expression (Weighted Difference) (2 hr to 4 hr Transition): 2.432 | Zfp36 Change in Gene Expression (Weighted Difference) (2 hr to 4 hr Transition): 2.638 | Zfp326 Change in Gene Expression (Weighted Difference) (2 hr to 4 hr Transition): 2.164 | % Shared (DBP-induced genes also TLR-induced) (4 hr): 64% | DBP Unique genes, number (4 hr): 13 | DBP-Induced genes (≧2x Increased Expression), number (4 hr): 36 | TLR-Induced among DBP-induced genes, number (4 hr): 23^# | Acot5 Change in Gene Expression (Weighted Difference) [1]: 2.251 | Akr1c18 Change in Gene Expression (Weighted Difference) [1]: 3.655 | Atp2c2 Change in Gene Expression (Weighted Difference) [1]: 5.815 | Btg2 Change in Gene Expression (Weighted Difference) [1]: 61.87 | Ccr4 Change in Gene Expression (Weighted Difference) [1]: 2.16 | Cdh10 Change in Gene Expression (Weighted Difference) [1]: 2.487 | Cish Change in Gene Expression (Weighted Difference) [1]: 2.011 | Cox17 Change in Gene Expression (Weighted Difference) [1]: 2.318 | Cysltr1 Change in Gene Expression (Weighted Difference) [1]: 7.656 | Egr1 Change in Gene Expression (Weighted Difference) [1]: 3.561 | Egr2 Change in Gene Expression (Weighted Difference) [1]: 2.003 | Frk Change in Gene Expression (Weighted Difference) [1]: 6.498 | Gbp8 Change in Gene Expression (Weighted Difference) [1]: 4.073 | Gem Change in Gene Expression (Weighted Difference) [1]: 2.491 | Gimap7 Change in Gene Expression (Weighted Difference) [1]: 4.789 | Ier3 Change in Gene Expression (Weighted Difference) [1]: 5.581 | Il10ra Change in Gene Expression (Weighted Difference) [1]: 2.325 | Jun Change in Gene Expression (Weighted Difference) [1]: 6.095 | Junb Change in Gene Expression (Weighted Difference) [1]: 4.5 | LOC100046066 Change in Gene Expression (Weighted Difference) [1]: 2.503 | Madcam1 Change in Gene Expression (Weighted Difference) [1]: 4.39 | Med17 Change in Gene Expression (Weighted Difference) [1]: 3.949 | Mkks Change in Gene Expression (Weighted Difference) [1]: 11.97 | Mndal Change in Gene Expression (Weighted Difference) [1]: 2.311 | Myc Change in Gene Expression (Weighted Difference) [1]: 24.16 | N6amt2 Change in Gene Expression (Weighted Difference) [1]: 3.347 | Nr4a1 Change in Gene Expression (Weighted Difference) [1]: 5.48 | P2ry1 Change in Gene Expression (Weighted Difference) [1]: 2.279 | Prf1 Change in Gene Expression (Weighted Difference) [1]: 7.177 | Sik1 Change in Gene Expression (Weighted Difference) [1]: 3.072 | Slc39a8 Change in Gene Expression (Weighted Difference) [1]: 3.193 | Tmed3 Change in Gene Expression (Weighted Difference) [1]: 2.37 | Zfp36 Change in Gene Expression (Weighted Difference) [1]: 4.19 | % Shared (DBP-induced genes also TLR-induced) (Total): 64% | DBP Unique genes, number (Total): 200 | DBP-Induced genes (≧2x Increased Expression), number (Total): 561 (33*) | TLR-Induced among DBP-induced genes, number (Total): 361 (340^#)
